Laboratory results: patent US10952436B2, “Microbiocidal quinoline (thio)carboxamide derivatives” (SYNGENTA PARTICIPATIONS AG, priority 2017, dated 2021)

Key:
Fusarium culmorum [1] = assay: microbe, parasite or virus in culture; format: cell-based; settings: read-out: control of Fusarium culmorum
[2] = test system: Botryotinia fuckeliana (Botrytis cinerea); assay: Botryotinia fuckeliana (Botrytis cinerea)/Liquid Culture (Gray Mould); format: cell-based; settings: 200 ppm, liquid culture, compared to untreated control, 3-4 days after application, read-out: control of Botryotinia fuckeliana
[3] = test system: Glomerella lagenarium (Colletotrichum lagenarium); assay: Glomerella lagenarium (Colletotrichum lagenarium)/Liquid Culture (Anthracnose); format: cell-based; settings: Colletotrichum orbiculare; 200 ppm; liquid culture, compared to untreated control, 3-4 days after application; read-out: control of Glomerella lagenarium
Fusarium culmorum [4] = assay: whole plant or invertebrate; format: in vivo; settings: in Triticum aestivum, read-out: control of Fusarium culmorum
[5] = test system: Monographella nivalis (Microdochium nivale); assay: Monographella nivalis (Microdochium nivale)/Liquid Culture (Foot Rot Cereals); format: cell-based; settings: 200 ppm, liquid culture, compared to untreated control, 4-5 days after application, read-out: control of Monographella nivalis
[6] = test system: Magnaporthe grisea (Pyricularia oryzae); assay: microbe, parasite or virus in culture; format: cell-based; settings: read-out: control of Magnaporthe grisea
Sclerotinia sclerotiorum = assay: Sclerotinia sclerotiorum/Liquid Culture (Cottony Rot); settings: read-out: control of Sclerotinia sclerotiorum
Procedure: Mycelia fragments of a newly grown liquid culture of the fungus are directly mixed into nutrient broth (Vogels broth). After placing a (DMSO) solution of test compound into a microtiter plate (96-well format) the nutrient broth containing the fungal material is added. The test plates are incubated at 24° C. and the inhibition of growth is determined photometrically 3-4 days after application.

| SMILES | inhibition of growth at 200 ppm (Fusarium culmorum [1]) | inhibition of growth at 200 ppm [2] | inhibition of growth at 200 ppm [3] | pest or weed control at 200 ppm (Fusarium culmorum [4]) | inhibition of growth at 200 ppm [5] | inhibition of growth at 200 ppm [6] | melting point | inhibition of growth at 20 ppm (Sclerotinia sclerotiorum) |
| --- | --- | --- | --- | --- | --- | --- | --- | --- |
| C/C=C\CC(C)(Cc1ccccc1)C(=O)Nc1cnc2c(F)cccc2c1 (stereo not drawn) [Compound E-28, (Z)-2-benzyl-N-(8-fluoro-3-quinolyl)-2-methyl-hex-4-enamide] | ≥ 80% | ≥ 80% | ≥ 80% | ≥ 80% | ≥ 80% | ≥ 80% | 128 to 130 °C |  |
| CC(C)=CC(C)(Cc1ccccc1)C(=O)Nc1cnc2c(F)cccc2c1 (stereo not drawn) [Compound E-48, 2-benzyl-N-(8-fluoro-3-quinolyl)-2,4-dimethyl-pent-3-enamide] | ≥ 80% | ≥ 80% | ≥ 80% | ≥ 80% |  | ≥ 80% | 167 to 169 °C |  |
| C=C(C)C[C@@](C)(Cc1ccccc1)C(=O)Nc1cnc2c(F)cccc2c1C [Compound F-5, (2S)-2-benzyl-N-(8-fluoro-4-methyl-3-quinolyl)-2,4-dimethyl-pent-4-enamide] | ≥ 80% | ≥ 80% | ≥ 80% |  | ≥ 80% | ≥ 80% |  | ≥ 80% |
| Cc1cccc2cc(NC(=O)C(C)(Cc3ccccc3)CC(F)(F)F)cnc12 (stereo not drawn) [Compound E-59, 2-benzyl-4,4,4-trifluoro-2-methyl-N-(8-methyl-3-quinolyl)butanamide] | ≥ 80% | ≥ 80% | ≥ 80% | ≥ 80% | ≥ 80% | ≥ 80% | 123 to 125 °C |  |
| C=C(Cl)CC(Cc1ccccc1)C(=O)Nc1cnc2c(F)cccc2c1C (stereo not drawn) [Compound E-5, 2-benzyl-4-chloro-N-(8-fluoro-4-methyl-3-quinolyl)pent-4-enamide] | ≥ 80% | ≥ 80% | ≥ 80% | ≥ 80% | ≥ 80% |  | 53 to 58 °C |  |
| CC(Cc1cccc(F)c1)(CC(F)(F)F)C(=O)Nc1cnc2c(F)cccc2c1 (stereo not drawn) [Compound E-22, 4,4,4-trifluoro-2-[(3-fluorophenyl)methyl]-N-(8-fluoro-3-quinolyl)-2-methyl-butanamide] | ≥ 80% | ≥ 80% | ≥ 80% |  | ≥ 80% | ≥ 80% |  | ≥ 80% |
| CC(Cc1ccccc1)(CC(F)(F)F)C(=O)Nc1cnc2ccccc2c1 (stereo not drawn) [Compound E-81, 2-benzyl-4,4,4-trifluoro-2-methyl-N-(3-quinolyl)butanamide] | ≥ 80% | ≥ 80% | ≥ 80% | ≥ 80% |  | ≥ 80% |  | ≥ 80% |
| CC(C)(C)C(Cc1ccccc1)C(=O)Nc1cnc2c(F)cccc2c1 (stereo not drawn) [Compound E-88, 2-benzyl-N-(8-fluoro-3-quinolyl)-3,3-dimethyl-butanamide] | ≥ 80% | ≥ 80% |  | ≥ 80% |  | ≥ 80% | 212 to 215 °C |  |
| Cc1nc2c(F)cccc2cc1NC(=O)C(C)(Cc1ccc(F)cc1)CC(F)(F)F (stereo not drawn) [Compound E-16, 4,4,4-trifluoro-N-(8-fluoro-2-methyl-3-quinolyl)-2-[(4-fluorophenyl)methyl]-2-methyl-butanamide] | ≥ 80% | ≥ 80% | ≥ 80% |  |  | ≥ 80% |  | ≥ 80% |
| CC(Cc1ccccc1)(CC(F)(F)F)C(=O)Nc1cnc2c(F)c(F)ccc2c1 (stereo not drawn) [Compound E-60, 2-benzyl-N-(7,8-difluoro-3-quinolyl)-4,4,4-trifluoro-2-methyl-butanamide] | ≥ 80% | ≥ 80% | ≥ 80% | ≥ 80% | ≥ 80% | ≥ 80% | 183 to 186 °C |  |
| COC(Cc1ccccc1)(CC(C)C)C(=O)Nc1cc2cccc(F)c2nc1C (stereo not drawn) [Compound E-37, 2-benzyl-N-(8-fluoro-2-methyl-3-quinolyl)-2-methoxy-4-methyl-pentanamide] | ≥ 80% | ≥ 80% | ≥ 80% | ≥ 80% | ≥ 80% | ≥ 80% | 92 to 94 °C |  |
| Cc1c(NC(=O)C(C)(Cc2ccccc2)CC(C)C)cnc2c(F)cccc12 (stereo not drawn) [Compound E-84, 2-benzyl-N-(8-fluoro-4-methyl-3-quinolyl)-2,4-dimethyl-pentanamide] | ≥ 80% | ≥ 80% | ≥ 80% | ≥ 80% | ≥ 80% |  | 73 to 79 °C |  |
| C=C(C)CC(C)(Cc1ccccc1)C(=O)Nc1cnc2c(Br)cccc2c1 (stereo not drawn) [Compound E-63, 2-benzyl-N-(8-bromo-3-quinolyl)-2,4-dimethyl-pent-4-enamide] | ≥ 80% | ≥ 80% |  | ≥ 80% |  | ≥ 80% | 165 to 169 °C |  |
| CC(Cc1ccccc1)(CC(F)(F)Cl)C(=O)Nc1cnc2c(F)cccc2c1 (stereo not drawn) [Compound E-56, 2-benzyl-4-chloro-4,4-difluoro-N-(8-fluoro-3-quinolyl)-2-methyl-butanamide] | ≥ 80% | ≥ 80% | ≥ 80% | ≥ 80% | ≥ 80% | ≥ 80% |  | ≥ 80% |
| Cc1nc2c(F)cccc2cc1NC(=O)[C@](C)(Cc1ccccc1)CC(C)C [Compound F-7, (2S)-2-benzyl-N-(8-fluoro-2-methyl-3-quinolyl)-2,4-dimethyl-pentanamide] | ≥ 80% | ≥ 80% | ≥ 80% | ≥ 80% | ≥ 80% | ≥ 80% |  | ≥ 80% |
| C=CCC(C)(Cc1ccccc1)C(=O)Nc1cnc2c(F)cccc2c1 (stereo not drawn) [Compound E-78, 2-benzyl-N-(8-fluoro-3-quinolyl)-2-methyl-pent-4-enamide] | ≥ 80% | ≥ 80% | ≥ 80% | ≥ 80% | ≥ 80% |  | 146 to 149 °C |  |
| COC(Cc1ccccc1)(CC(C)C)C(=O)Nc1cnc2c(F)cccc2c1 (stereo not drawn) [Compound E-38, 2-benzyl-N-(8-fluoro-3-quinolyl)-2-methoxy-4-methyl-pentanamide] | ≥ 80% | ≥ 80% | ≥ 80% | ≥ 80% |  | ≥ 80% | 133 to 135 °C |  |
| Cc1c(NC(=O)[C@](C)(Cc2ccccc2)CC(C)C)cnc2c(F)cccc12 [Compound F-3, (2S)-2-benzyl-N-(8-fluoro-4-methyl-3-quinolyl)-2,4-dimethyl-pentanamide] | ≥ 80% | ≥ 80% | ≥ 80% |  | ≥ 80% | ≥ 80% |  | ≥ 80% |
| C[C@](Cc1ccccc1)(CC(F)(F)F)C(=O)Nc1cnc2c(F)c(F)ccc2c1 [Compound F-15, (2S)-2-benzyl-N-(7,8-difluoro-3-quinolyl)-4,4,4-trifluoro-2-methyl-butanamide] | ≥ 80% | ≥ 80% | ≥ 80% |  | ≥ 80% | ≥ 80% |  | ≥ 80% |
| O=C(Nc1cnc2c(F)cccc2c1)C(Cc1ccccc1)CC(F)(F)Cl (stereo not drawn) [Compound E-58, 2-benzyl-4-chloro-4,4-difluoro-N-(8-fluoro-3-quinolyl)butanamide] | ≥ 80% | ≥ 80% | ≥ 80% | ≥ 80% | ≥ 80% | ≥ 80% | 65 to 70 °C |  |
| C[C@](Cc1ccccc1)(CC(F)(F)F)C(=O)Nc1cnc2c(F)cccc2c1 (single isomer, unassigned) [Compound F-23] | ≥ 80% | ≥ 80% | ≥ 80% | ≥ 80% | ≥ 80% | ≥ 80% |  | ≥ 80% |
| COC(C)(Cc1ccccc1)C(=O)Nc1cnc2c(F)cccc2c1 (stereo not drawn) [Compound E-43, N-(8-fluoro-3-quinolyl)-2-methoxy-2-methyl-3-phenyl-propanamide] | ≥ 80% | ≥ 80% | ≥ 80% | ≥ 80% | ≥ 80% | ≥ 80% | 107 to 109 °C |  |
